Source: BindingDB's records for doi:10.1021/jm9805642 (Pharmacia and Upjohn, 1999)

Target: Cytosol aminopeptidase (Sus scrofa) (UniProt P28839)
Test: Inhibition against Leucyl aminopeptidase from pig kidney.

Cytosol aminopeptidase (Sus scrofa), sequence (P28839 whole entry, looked up): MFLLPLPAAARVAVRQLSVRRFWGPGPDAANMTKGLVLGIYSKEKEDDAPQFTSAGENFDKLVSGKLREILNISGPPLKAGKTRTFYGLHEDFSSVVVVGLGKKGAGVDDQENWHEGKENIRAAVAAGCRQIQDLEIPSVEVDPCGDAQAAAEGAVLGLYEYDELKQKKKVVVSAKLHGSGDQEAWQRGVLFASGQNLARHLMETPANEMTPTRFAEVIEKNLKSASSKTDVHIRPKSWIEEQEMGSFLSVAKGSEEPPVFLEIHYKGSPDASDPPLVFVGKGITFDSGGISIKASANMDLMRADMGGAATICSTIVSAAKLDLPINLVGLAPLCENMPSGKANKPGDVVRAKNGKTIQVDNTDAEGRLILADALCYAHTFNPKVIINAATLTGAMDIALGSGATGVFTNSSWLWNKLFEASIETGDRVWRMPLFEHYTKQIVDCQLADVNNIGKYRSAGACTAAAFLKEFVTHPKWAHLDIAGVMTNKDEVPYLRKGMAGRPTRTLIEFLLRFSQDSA

| Compound | IC50 |
| --- | --- |
| C[C@H](NC(=O)[C@@H]1CCCN1C(=O)[C@@H]1CC(O)CN1C(=O)[C@@H](O)[C@H](N)Cc1ccccc1)C(N)=O (stereo not given in full) [1-[1-(3-Amino-2-hydroxy-4-phenyl-butyryl)-4-hydroxy-pyrrolidine-2-carbonyl]-pyrrolidine-2-carboxylic acid (1-carbamoyl-ethyl)-amide] | 1.6 µM |
| C[C@H](NC(=O)[C@@H]1CCCN1C(=O)C1CCCCC1C(=O)NO)C(N)=O (stereo partly drawn) [(S)-1-(2-Hydroxycarbamoyl-cyclohexanecarbonyl)-pyrrolidine-2-carboxylic acid ((S)-1-carbamoyl-ethyl)-amide] | > 1000 µM |
| C[C@H](NC(=O)[C@@H]1CCCN1C(=O)C1CCCC1S)C(N)=O (stereo partly drawn) [(S)-1-(2-Mercapto-cyclopentanecarbonyl)-pyrrolidine-2-carboxylic acid ((S)-1-carbamoyl-ethyl)-amide] | > 1000 µM |
| C[C@H](NC(=O)[C@@H]1CCCN1C(=O)[C@@H]1CCCN1C(=O)[C@@H](O)[C@H](N)Cc1ccccc1)C(N)=O [(S)-1-[(S)-1-((2S,3R)-3-Amino-2-hydroxy-4-phenyl-butyryl)-pyrrolidine-2-carbonyl]-pyrrolidine-2-carboxylic acid ((S)-1-carbamoyl-ethyl)-amide] | 0.3 µM |
| NC(=O)[C@@H]1CCCN1C(=O)[C@@H]1CCCN1C(=O)[C@@H](O)[C@H](N)Cc1ccccc1 [(S)-1-[(S)-1-((2S,3R)-3-Amino-2-hydroxy-4-phenyl-butyryl)-pyrrolidine-2-carbonyl]-pyrrolidine-2-carboxylic acid amide] | 2.5 µM |
